Test results as given in patent US20060099170A1, “Compositions for inducing increased levels of beta-chemokines and methods of use therefor” (priority 2002, published 2006).
Where two headings read alike, the source gives them in different places.

How the values were obtained:
[1] = Tolerability of Rapamycin in healthy volunteers; format: in vivo, human; details: 5 healthy volunteers, 2 mg/day after 6 mg loading dose, 14 days
Experimental: HIV-1 has been shown in most instances to use the chemokine receptor, CCR5, as a co-receptor for entry into macrophages and CD4 lymphocytes. The natural ligands for the CCR5 co-receptor are proteins called β-Chemokines. […] To assess the activity of β-Chemokine production levels and its effects on CCR5 receptors in vivo an open-labeled, non-randomized observational trial was performed in which 5 healthy volunteers were given 2 mg/day of Rapamycin, following a 6 mg loading dose, for 14 days. Peripheral blood for determining β-Chemokines was obtained at the screening visit, days 7 and 14 of the Rapamycin dosing, and at day 28 (which was two weeks following the last dose of Rapamycin). All 5 subjects completed the study and Rapamycin was well-tolerated.

[2] = renal transplant recipients, cited from earlier work
[3] = tested on: five R5 strains of HIV-1; assay: Antiviral activity of low concentrations of RAPA in PBMCs, panel of R5 strains; format: cell-based; details: Human immunodeficiency virus 1, PBMC
Experimental: (§1) The following viruses were used in infection experiments, including HIV-1 IIIb, HIV-1 ADA, HIV-1 BaL, HIV-1 JRFL, HIV-1 JRCSF, and HIV-1 SF162. HIV-1 IIIb is a T cell line-adapted lab strain that uses CXCR4 for entry into cells, whereas the rest are isolates that use CCR5.
(§2) For infection of PBMCs, fresh donor PBMCs were cultured for 7 days in medium containing IL-2. On day 7, cells were exposed to the virus for 3 h. Nonadsorbed virus was removed by washing cells with PBS three times. Infected cells were cultured in IL-2 medium. Infection of MDMs was carried out as described before (Pemo, et al. 1993). Unless otherwise indicated, PBMCs were infected by using a moi of 0.001, and monocyte-derived macrophages (MDMs) were infected by using a moi of 0.002. Virus growth was monitored in culture supernatants by measuring p24 antigen levels by ELISA (NEN) or by measuring viral RT activity in an RT assay (Willey, et al., 1988).
RAPA at 0.01 nM inhibited R5 HIV-1 by 10-64% depending on the strains, whereas 0.1 nM RAPA inhibited virus replication by 15-85%. At 1 nM RAPA, all R5 viruses were inhibited by >90%.

[4] = tested on: HIV-1 IIIb; assay: Antiviral activity of RAPA in PBMCs (p24); format: cell-based; details: Human immunodeficiency virus 1, IIIB, PBMC
Experimental: as §1, §2
(§3) The antiviral activity of RAPA was assayed in PBMCs that had been cultured in the presence of RAPA for 7 days before infection. Cells were infected with the X4 HIV-1 IIIb and the R5 HIV-1 ADA strains. Infected cells were cultured in the presence of RAPA (same concentration as during pretreatment) for 7 additional days, during which time virus replication and cell viability were measured. […]

[5] = tested on: PBMCs; assay: β-chemokine levels (ELISA) in supernatants of IL-2 PBMC cultures with RAPA; format: cell-based, human
Experimental: RAPA was purchased from Calbiochem.
Levels of the β-chemokines MIP-1α, MIP-1β and RANTES were measured in culture supernatants by using ELISA kits (R & D Systems).
We next measured levels of the CCR5 ligands MIP-1α, MIP-1β, and RANTES in supernatants of RAPA-treated PBMC cultures. PBMCs from four donors were cultured in the presence of IL-2 and RAPA for 10 days. […] Among the different donors, RAPA-treated cultures contained 6-39-fold higher levels of MIP-1α than untreated cultures. Similarly, MIP-1β levels were increased 17-47-fold in the presence of RAPA as compared with untreated controls. […] Chemokine results obtained in two of the donors, showing disparity of RANTES levels in the presence of RAPA, are depicted in FIG. 8A.
The effect of RAPA on MIP-1β protein levels provided information regarding the mechanism by which RAPA increases β-chemokine levels. To this end, stimulated PBMCs from two normal donors and from a CCR5-null donor were cultured in the presence of RAPA as in previous experiments. MIP-1β levels in supernatants were evaluated on day 10. Representative results obtained in one of the normal donors are shown next to the results obtained on the CCR5-null donor (FIG. 8B).
PBMCs from a healthy donor were cultured in the presence of IL-2 and Rapamycin. On day 7, chemokines content in the supernatant was measured by ELISA and cell viability was determined by the MTT assay.

[6] = tested on: HIV-1 SF 162; assay: Antiviral activity of RAPA in monocyte-derived macrophages; format: cell-based; details: Human immunodeficiency virus 1, Macrophage; 0.01 nM RAPA; data not shown
[7] = tested on: HIV-1 ADA; assay: Antiviral activity of RAPA in monocyte-derived macrophages (RT assay); format: cell-based
Experimental: (§4) Cultures of peripheral blood mononuclear cells (PBMCs) and monocyte-derived macrophages (MDMs) were performed on normal donors as described (Poli, et al. 1993, Perno, et al., 1993). PBMCs were maintained in the presence of 100 units/ml rhIL-2 (Roche Molecular Biochemicals). Cell viability was determined by Trypan blue staining or by the MTT assay (Roche Molecular Biochemicals). RAPA was purchased from Calbiochem. The CCR5 antagonist TAK-779 was obtained from the National Institutes of Health AIDS Research and Reference Reagent Program (Rockville, Md.). CCR5 surface expression was measured on PBMCs cultured in the presence of IL-2 for 7-10 days. Staining was done as described (Lane, et al. 1999), but using CCR5 mAb 182 (R & D Systems). Background staining was determined by adding an isotype-matched control (IgG2b, R&D Systems) instead of the anti-CCR5 mAb. Data were acquired by using a FACS Calibur flow cytometer (BD Biosciences) and analyzed by using FLOWJO (Tree Star, San Carlos, Calif.).
as §2
(§5) On day 5, cells were infected with HIV-1 ADA. Infected cells were cultured in the presence of RAPA for an additional 14 days. Virus production was measured on the culture supernatants on days 7, 10, and 14 after infection.
In the above-described experiment, monocytes had been pretreated with RAPA during the 5-day differentiation period. To control for the possible interference of RAPA with the process of monocyte differentiation, a new infection experiment in which RAPA was not present during the 5-day monocyte differentiation period was designed. To this end, fresh monocytes were cultured for 5 days in the absence of RAPA. On day 5, cells were infected with HIV-1 ADA and then exposed to RAPA.

[8] = tested on: MDMs; assay: Cell viability of MDMs (MTT assay); format: cell-based, human; details: end of experiment (day 14)
Experimental: as §4, §5

[9] = tested on: HIV-1 ADA; assay: Antiviral activity of RAPA in PBMCs (p24); format: cell-based; details: Human immunodeficiency virus 1, PBMC
Experimental: as §1, §2, §3

[10] = tested on: PBMCs; assay: PBMC proliferation and viability (MTT assay)
Experimental: as §4
Donor PBMCs were cultured in the presence of IL-2 and RAPA (10-fold serial dilutions, from 10^4 to 0.01 nM).

[11] = tested on: resting CD4 T cells; assay: Cell viability / proliferation of patients' CD4 T cell cultures (trypan blue); format: cell-based, human; details: 5 μg/ml VE, days 7 or 14; data not shown
Experimental: (§6) Blood (50 ml) was drawn from 10 patients on antiretroviral therapy, whose viral load were <400 copies/ml and whose CD4 counts were >300/μl. Resting CD4 T cells were purified by negative selection using antibody-labeled magnetic beads (Dynal, Lake Success, N.Y.). Purified cells were activated by co-culture with γ-irradiated PBMCs from normal donors in the presence of 1 μg/ml anti-CD3 antibody (Coulter, Miami, Fla.) and 100 units/ml rhIL-2 (Roche, Indianapolis, Ind.). Cultures were set up in the absence or continuous presence of 5 μg/ml of VE (Vitamin E succinate, Sigma, St. Louis, Mo.), with medium replenishment every 3 or 4 days. Cultures were maintained for 14 days. Virus production was monitored by measuring p24 antigen (NEN, Boston, Mass.) in the culture supernatants on days 7 and 14. Cell viability was measured by trypan blue staining.

[12] = tested on: HIV-1; assay: HIV-1 production upon activation of patients' resting CD4 T cells (p24 ELISA); format: cell-based; details: 5 μg/ml VE
Experimental: HIV-1 gene expression on latently infected resting T cells is dependent on host transcriptional factors, such as NF-κB, that are induced on activated cells. In the present study we have evaluated the in vitro effect of adding Vitamin E (VE) to cultures of patients' resting CD4 T cells under conditions of cellular activation that promote virus expression.
as §6

[13] = tested on: activated PBMCs; assay: β-chemokine levels in activated PBMCs cultured with Vitamin E; format: cell-based, human; details: day 6 after addition of Vitamin E, IL-2, FIG. 12
Experimental: B-chemokines levels were measured in activated PBMCs cuftured in the presence of Vitamin E, an antioxidant reported to induce G1 cycle arrest. PBMCs from a healthy donor were activated under the presence of the indicated stimuli for 72 h. Activated cells were cultured in the presence of IL-2 and Vitamin E. Supernatants were evaluated for β-chemokine content on day 6 after addition of Vitamin E. Cell viability was measured by MTT assay.

[14] = IL-2 and RAPA for 10 days, four donors

Q: With `CO[C@H]1C[C@@H]2CC[C@@H](C)[C@@](O)(O2)C(=O)C(=O)N2CCCC[C@H]2C(=O)O[C@H]([C@H](C)C[C@@H]2CC[C@@H](O)[C@H](OC)C2)CC(=O)[C@H](C)/C=C(\C)[C@@H](O)[C@@H](OC)C(=O)[C@H](C)C[C@H](C)/C=C/C=C/C=C/1C` [RAPA, rapamycin] as the compound, how does the tolerability [1] read?
A: well-tolerated

Q: What about the therapeutic through levels ([2]; daily 2 mg) of the same compound?
A: 9.3 ± 4.4 nM

Q: And the therapeutic through levels ([2]; daily 5 mg)?
A: 18.9 ± 8 nM

Q: What about the inhibition at 10 pM ([3]; read-out: inhibition of R5 HIV-1) of the same compound?
A: 10 to 64%

Q: And the inhibition at 0.001 µM ([3]; read-out: inhibition of all R5 viruses)?
A: > 90%

Q: What about the inhibition at 0.0001 µM ([3]; read-out: inhibition of virus replication (R5 HIV-1)) of the same compound?
A: 15 to 85%

Q: And the inhibition at 0.01 µM ([4]; 10 nM RAPA (range of 5-25%))?
A: 13.5%

Q: And the inhibition at 0.1 µM ([4]; 100 nM RAPA (range 29-60%))?
A: 32%

Q: And the MIP-1β levels increase ([5]; CCR5-null donor, day 10)?
A: 1.2 fold

Q: What about the “MIP-1α levels, RAPA-treated versus untreated cultures” value [5, 14] of the same compound?
A: 6-39 fold

Q: And the “MIP-1β levels increase compared with untreated controls” value [5, 14]?
A: 17-47 fold

Q: What about the “MIP-1β protein increase compared with RAPA-untreated control” value ([5]; normal donor, day 10) of the same compound?
A: 9.3 fold

Q: What about the inhibition at 10 pM [6] of the same compound?
A: 45%

Q: What about the “inhibition of virus replication” value ([7]; 1 nM RAPA added after infection, no RAPA during differentiation, day 14, two donors) of the same compound?
A: ~80%

Q: What about the inhibition at 0.001 µM ([7]; Human immunodeficiency virus 1, Macrophage, 336 h, 1 nM RAPA added after infection, no RAPA during differentiation, day 14, two donors, read-out: inhibition of virus replication) of the same compound?
A: ~60%

Q: What about the inhibition at 10 pM ([7]; Human immunodeficiency virus 1, Macrophage, 0.01 nM RAPA, data not shown) of the same compound?
A: 64%

Q: What about the “inhibition of virus production” value ([7]; RAPA 0.1-100 nM, day 14, monocytes pretreated 5 days) of the same compound?
A: 70-95%

Q: And the “RAPA concentrations at which cell viability was reduced” value [8]?
A: > 10 nM

Q: What about the inhibition at 0.01 µM ([9]; 10 nM RAPA, average of seven experiments (range of 88-97%)) of the same compound?
A: 91%

Q: And the inhibition at 0.1 µM ([9]; 100 nM RAPA, seven experiments (range of 92-99%))?
A: 94%

Q: What about the “drug concentrations at which reduced proliferation was detected” value ([10]; IL-2, MTT assay on day 7) of the same compound?
A: ≥ 1 nM

Q: And the “drug concentrations at which drug toxicity was observed” value ([10]; data not shown)?
A: above 1 nM

Q: What does the source list for `Cc1c(C)c2c(c(C)c1O)CC[C@@](C)(CCC[C@H](C)CCC[C@H](C)CCCC(C)C)O2` [Vitamin E, alpha-tocopherol]?
A: cell viability and cell proliferation [11]: Neither cell viability nor cell proliferation was affected; virus production, mean Log p24 ([12]; day 14, 9 patients, log of p24 pg/ml, absence of VE 3.58, p=0.016): 2.06; cultures with positive virus isolation ([12]; day 14, untreated 9/10): 7/10; levels of β-chemokines [13]: increased levels of β-chemokines
